The values that follow come from ChEMBL document CHEMBL1938339, “Tripeptidic BACE1 inhibitors devised by in-silico conformational structure-based design” (Bioorg Med Chem Lett, 2012).

This experiment addresses Beta-secretase 1 (Homo sapiens) (UniProt P56817). Nature of the experiment: Inhibition of human recombinant BACE1 at 2 uM by FRET assay.

Beta-secretase 1 (Homo sapiens), sequence (P56817 whole entry): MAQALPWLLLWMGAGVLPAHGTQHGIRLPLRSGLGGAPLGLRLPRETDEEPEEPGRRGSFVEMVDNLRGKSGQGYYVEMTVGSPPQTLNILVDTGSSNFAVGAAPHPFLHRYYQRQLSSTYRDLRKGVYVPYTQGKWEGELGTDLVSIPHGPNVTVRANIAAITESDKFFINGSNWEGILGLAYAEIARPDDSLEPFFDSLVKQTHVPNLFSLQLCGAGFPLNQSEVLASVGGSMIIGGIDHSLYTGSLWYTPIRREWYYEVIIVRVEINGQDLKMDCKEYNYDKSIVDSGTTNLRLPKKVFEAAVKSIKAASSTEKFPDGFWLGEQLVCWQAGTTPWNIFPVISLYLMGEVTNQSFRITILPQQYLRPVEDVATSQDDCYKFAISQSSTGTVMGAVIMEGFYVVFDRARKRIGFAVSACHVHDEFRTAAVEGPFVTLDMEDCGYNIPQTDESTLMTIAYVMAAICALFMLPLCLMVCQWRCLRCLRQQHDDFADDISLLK

For the compound `CC(C)C[C@H](NC(=O)[C@@H](NC(=O)[C@@H](N)CNC(=O)c1[nH]c(=O)[nH]c(=O)c1F)C(C)C)C(=O)N1CCCCCC1`, the inhibition was 89%.
Regarding `CC(C)[C@H](NC(=O)[C@@H](N)CNC(=O)c1[nH]c(=O)[nH]c(=O)c1F)C(=O)N[C@@H](CC1CCCCC1)C(=O)NC(C)(C)Cc1ccc([N+](=O)[O-])cc1`, the inhibition amounted to 89%.
Take `CC(C)[C@H](NC(=O)[C@@H](N)CNC(=O)c1cc(O)ccc1O)C(=O)N[C@@H](CC1CCCCC1)C(=O)NC(C)(C)Cc1ccc(I)cc1I`: the inhibition stood at 88%.
On to `CC(C)C[C@H](NC(=O)[C@@H](NC(=O)[C@@H](N)CNC(=O)c1cc(O)ccc1O)C(C)C)C(=O)NC(C)(C)Cc1ccccc1`, for which the inhibition was 77%.
Take `CC(C)C[C@H](NC(=O)[C@@H](NC(=O)[C@@H](N)CNC(=O)c1[nH]c(=O)[nH]c(=O)c1F)C(C)C)C(=O)NC(C)(C)Cc1ccccc1`: the inhibition was determined as 90%.
`CC(C)C[C@H](NC(=O)[C@@H](NC(=O)[C@@H](N)CNC(=O)c1[nH]c(=O)[nH]c(=O)c1F)C(C)C)C(=O)NC(C)(C)Cc1cc(F)cc(F)c1`: the inhibition came out at 86%.
With `CC(C)C[C@H](NC(=O)[C@@H](NC(=O)[C@@H](N)CNC(=O)c1[nH]c(=O)[nH]c(=O)c1F)C(C)C)C(=O)N1CCCCC1`, the inhibition is 91%.
Take `Cc1ccc(CC(C)(C)NC(=O)[C@H](CC(C)C)NC(=O)[C@@H](NC(=O)[C@@H](N)CNC(=O)c2[nH]c(=O)[nH]c(=O)c2F)C(C)C)cc1`: the inhibition was determined as 86%.
On to `CC(C)C[C@H](NC(=O)[C@@H](NC(=O)[C@@H](N)CNC(=O)c1[nH]c(=O)[nH]c(=O)c1F)C(C)C)C(=O)N1CCCCCCC1`, for which the inhibition was found to be 85%.
`CC(C)C[C@H](NC(=O)[C@@H](NC(=O)[C@@H](N)CCC(=O)O)C(C)C)C(=O)NC(C)(C)Cc1ccccc1`: the inhibition was less than 10%.
In the case of `CC(C)[C@H](NC(=O)[C@@H](N)CNC(=O)c1cc(O)ccc1O)C(=O)N[C@@H](CC1CCCCC1)C(=O)NC(C)(C)Cc1ccc([N+](=O)[O-])cc1`, the inhibition amounted to 80%.
Regarding `Cc1ccccc1CC(C)(C)NC(=O)[C@H](CC1CCCCC1)NC(=O)[C@@H](NC(=O)[C@@H](N)CNC(=O)c1cc(O)ccc1O)C(C)C`, the inhibition was determined as 54%.
Take `COc1ccc(CC(C)(C)NC(=O)[C@H](CC2CCCCC2)NC(=O)[C@@H](NC(=O)[C@@H](N)CNC(=O)c2cc(O)ccc2O)C(C)C)cc1`: the inhibition was 45%.
Take `COc1ccc(CC(C)(C)NC(=O)[C@H](CC(C)C)NC(=O)[C@@H](NC(=O)[C@@H](N)CNC(=O)c2cc(O)ccc2O)C(C)C)cc1`: the inhibition is 41%.
`CC(C)C[C@H](NC(=O)[C@@H](NC(=O)[C@@H](N)CNC(=O)c1[nH]c(=O)[nH]c(=O)c1F)C(C)C)C(=O)NC(C)(C)CC1CCCCC1`: the inhibition amounted to 91%.
To `COc1ccc(CC(C)(C)NC(=O)[C@H](CC(C)C)NC(=O)[C@@H](NC(=O)[C@@H](N)CNC(=O)c2[nH]c(=O)[nH]c(=O)c2F)C(C)C)cc1` belongs 83%.
The value for `Cc1ccccc1CC(C)(C)NC(=O)[C@H](CC1CCCCC1)NC(=O)[C@@H](NC(=O)[C@@H](N)CNC(=O)c1[nH]c(=O)[nH]c(=O)c1F)C(C)C` was 84%; that for `Cc1ccc(CC(C)(C)NC(=O)[C@H](CC(C)C)NC(=O)[C@@H](NC(=O)[C@@H](N)CNC(=O)c2cc(O)ccc2O)C(C)C)cc1` was 51%; that for `CC(C)[C@H](NC(=O)[C@@H](N)CNC(=O)c1cc(O)ccc1O)C(=O)N[C@@H](CC1CCCCC1)C(=O)NC(C)(C)Cc1ccccc1` was 80%.
As for `CC(C)C[C@H](NC(=O)[C@@H](NC(=O)[C@@H](N)CNC(=O)c1[nH]c(=O)[nH]c(=O)c1F)C(C)C)C(=O)NC(C)(C)Cc1ccc(Br)cc1`, the inhibition worked out at 85%.
In the case of `CC(C)C[C@H](NC(=O)[C@@H](NC(=O)[C@@H](N)CNC(=O)c1[nH]c(=O)[nH]c(=O)c1F)C(C)C)C(=O)NC(C)(C)Cc1ccc([N+](=O)[O-])cc1`, the inhibition was 27%.
On to `COc1cccc(CC(C)(C)NC(=O)[C@H](CC(C)C)NC(=O)[C@@H](NC(=O)[C@@H](N)CNC(=O)c2cc(O)ccc2O)C(C)C)c1`, for which the inhibition amounted to 46%.
On to `COc1cccc(CC(C)(C)NC(=O)[C@H](CC(C)C)NC(=O)[C@@H](NC(=O)[C@@H](N)CNC(=O)c2[nH]c(=O)[nH]c(=O)c2F)C(C)C)c1`, for which the inhibition was determined as 84%.
For the compound `CC(C)C[C@H](NC(=O)[C@@H](NC(=O)[C@@H](N)CNC(=O)c1cc(O)ccc1O)C(C)C)C(=O)NC(C)(C)Cc1ccc(I)cc1I`, the inhibition is 78%.
Consider `CC(C)C[C@H](NC(=O)[C@@H](NC(=O)[C@@H](N)CNC(=O)c1cc(O)ccc1O)C(C)C)C(=O)NC(C)(C)Cc1ccc([N+](=O)[O-])cc1`, for which the inhibition is 45%.
As to `CC(C)[C@H](NC(=O)[C@@H](N)CNC(=O)c1nn[nH]n1)C(=O)N[C@@H](CC1CCCCC1)C(=O)NC(C)(C)Cc1ccccc1`, the inhibition came to 76%.
For the compound `CC(C)[C@H](NC(=O)[C@@H](N)CCC(=O)O)C(=O)N[C@@H](CC1CCCCC1)C(=O)NC(C)(C)Cc1ccccc1`, the inhibition was found to be 16%.
With `CC(C)[C@H](NC(=O)[C@@H](N)CNC(=O)c1cc(O)ccc1O)C(=O)N[C@@H](CC1CCCCC1)C(=O)NC(C)(C)Cc1ccc(Br)cc1`, the inhibition amounted to 81%.
With `CC(C)C[C@H](NC(=O)[C@@H](NC(=O)[C@@H](N)CNC(=O)c1[nH]c(=O)[nH]c(=O)c1F)C(C)C)C(=O)N1CCCCCCCC1`, the inhibition amounted to 81%.
As for `CC(C)[C@H](NC(=O)[C@@H](N)CNC(=O)c1[nH]c(=O)[nH]c(=O)c1F)C(=O)N[C@@H](CC1CCCCC1)C(=O)NC(C)(C)Cc1cc(F)cc(F)c1`, the inhibition worked out at 91%.
Consider `CC(C)C[C@H](NC(=O)[C@@H](NC(=O)[C@@H](N)CNC(=O)c1cc(O)ccc1O)C(C)C)C(=O)NC(C)(C)Cc1cc(F)cc(F)c1`, for which the inhibition stood at 59%.
For the compound `Cc1ccccc1CC(C)(C)NC(=O)[C@H](CC(C)C)NC(=O)[C@@H](NC(=O)[C@@H](N)CNC(=O)c1[nH]c(=O)[nH]c(=O)c1F)C(C)C`, the inhibition was 91%.
On to `Cc1ccc(CC(C)(C)NC(=O)[C@H](CC2CCCCC2)NC(=O)[C@@H](NC(=O)[C@@H](N)CNC(=O)c2[nH]c(=O)[nH]c(=O)c2F)C(C)C)cc1`, for which the inhibition stood at 88%.
In the case of `CC(C)[C@H](NC(=O)[C@@H](N)CNC(=O)c1[nH]c(=O)[nH]c(=O)c1F)C(=O)N[C@@H](CC1CCCCC1)C(=O)NC(C)(C)Cc1ccccc1`, the inhibition was determined as 92%.
Consider `CC(C)C[C@H](NC(=O)[C@@H](NC(=O)[C@@H](N)CNC(=O)c1[nH]c(=O)[nH]c(=O)c1F)C(C)C)C(=O)N1CCCC1`, for which the inhibition amounted to 88%.
On to `COc1ccc(CC(C)(C)NC(=O)[C@H](CC2CCCCC2)NC(=O)[C@@H](NC(=O)[C@@H](N)CNC(=O)c2[nH]c(=O)[nH]c(=O)c2F)C(C)C)cc1`, for which the inhibition was 85%.
As for `CC(C)[C@H](NC(=O)[C@@H](N)CNC(=O)c1[nH]c(=O)[nH]c(=O)c1F)C(=O)N[C@@H](CC1CCCCC1)C(=O)NC(C)(C)Cc1ccc(I)cc1I`, the inhibition came out at 96%.
The value for `CC(C)C[C@H](NC(=O)[C@@H](NC(=O)[C@@H](N)CNC(=O)c1nn[nH]n1)C(C)C)C(=O)NC(C)(C)Cc1ccccc1` was 70%; that for `COc1cccc(CC(C)(C)NC(=O)[C@H](CC2CCCCC2)NC(=O)[C@@H](NC(=O)[C@@H](N)CNC(=O)c2cc(O)ccc2O)C(C)C)c1` was 49%.
The value for `CC(C)[C@H](NC(=O)[C@@H](N)CNC(=O)c1[nH]c(=O)[nH]c(=O)c1F)C(=O)N[C@@H](CC1CCCCC1)C(=O)NC(C)(C)Cc1ccc(Br)cc1` was 92%; that for `COc1cccc(CC(C)(C)NC(=O)[C@H](CC2CCCCC2)NC(=O)[C@@H](NC(=O)[C@@H](N)CNC(=O)c2[nH]c(=O)[nH]c(=O)c2F)C(C)C)c1` was 77%; that for `CC(C)[C@H](NC(=O)[C@@H](N)CNC(=O)c1[nH]c(=O)[nH]c(=O)c1F)C(=O)N[C@@H](CC1CCCCC1)C(=O)NC(C)(C)CC1CCCCC1` was 88%.
For the compound `CC(C)C[C@H](NC(=O)[C@@H](NC(=O)[C@@H](N)CNC(=O)c1[nH]c(=O)[nH]c(=O)c1F)C(C)C)C(=O)NC(C)(C)Cc1ccc(I)cc1I`, the inhibition was found to be 91%.
